In ChEMBL document CHEMBL3217746, “Edaravone containing isoindoline nitroxides for the potential treatment of cardiovascular ischaemia” (Medchemcomm, 2011) one finds inhibition, Cmax and ED data, which are given here for four compounds.

In general, inhibition refers to the share of the control response that was lost under treatment. A word on the Cmax: it is the peak of the concentration-time curve.

Active and inactive are the calls of the source. The rule behind the calls is not given here.

Series [1] relates to H9c2. Put plainly: Cardioprotective activity in rat H9c2 cells hypoxia-induced ischaemic model assessed as decrease in cell death at 1 to 100 uM by propidium iodide exclusion assay. It is filed as functional, cell-based.
In series [2] the test system is H9c2. The series can be described thus: Cardioprotective activity in rat H9c2 cells hypoxia-induced ischaemic model assessed as maximal decrease in cell death at 100 uM by propidium iodide exclusion assay. The series is classed as functional, cell-based.
Series [3] is described as follows: Peak plasma concentration in rat at 1.5 mg/kg, iv bolus dose. The series is classed as ADME, organism-based. Also on record: dose 1.5 mg/kg, route intravenous.
The next series has as its system Rattus norvegicus. The series can be described thus: Cardioprotective activity against iv dosed ischaemic brain injury rat model assessed as effective dose after 30 mins. The series is classed as functional.
In series [4] the test system is H9c2. Put plainly: Cardioprotective activity in rat H9c2 cells hypoxia-induced ischaemic model assessed as maximal decrease in cell death at 10 uM by propidium iodide exclusion assay. The series is classed as functional.

Consider `CON1C(C)(C)c2ccc(N3N=C(C)CC3=O)cc2C1(C)C`, for which the inhibition result in the series with H9c2 [1] is “Active”. Turning to `CC1=NN(c2ccc3c(c2)C(C)(C)N([O])C3(C)C)C(=O)C1`, the inhibition entry in the series with H9c2 [1] was “Active”. Further, the inhibition in the series with H9c2 [2] worked out at 85.5%.

For `CC1=NN(c2ccccc2)C(=O)C1` [EDARAVONE], the Cmax in series [3] came to 20 µM. For the same compound, the inhibition result in the series with H9c2 [1] is “Active”. The ED in the series on Rattus norvegicus turned out to be 3 mg/kg.

In the case of `OC[C@H]1O[C@@H](n2cnc3c(NC4CCCC4)ncnc32)[C@H](O)[C@@H]1O` [N6-CYCLOPENTYLADENOSINE], the inhibition at 10 µM in the series on H9c2 [4] came out at 75.4%.
